According to patent US8962631B2 (Vertex Pharmaceuticals Incorporated, priority 2010, dated 2015):

biological target: T1, full-length ATR (Homo sapiens, UniProt Q13535); experiment: ATR Inhibition Assay (radioactive-phosphate incorporation); format: biochemical; settings: Ki(app); 10 μM ATP, 800 μM target peptide, 5 nM full-length ATR, 25° C.
T1 construct: Assays were carried out at 25° C. in the presence of 5 nM full-length ATR
Protocol: Compounds were screened for their ability to inhibit ATR kinase using a radioactive-phosphate incorporation assay. Assays were carried out in a mixture of 50 mM Tris/HCl (pH 7.5), 10 mM MgCl2 and 1 mM DTT. Final substrate concentrations were 10 μM [γ-33P]ATP (3 mCi 33P ATP/mmol ATP, Perkin Elmer) and 800 μM target peptide ([…] (SEQ. ID NO: 1)).
Assays were carried out at 25° C. in the presence of 5 nM full-length ATR. An assay stock buffer solution was prepared containing all of the reagents listed above, with the exception of ATP and the test compound of interest. 13.5 μL of the stock solution was placed in a 96 well plate followed by addition of 2 μL of DMSO stock containing serial dilutions of the test compound (typically starting from a final concentration of 15 μM with 3-fold serial dilutions) in duplicate (final DMSO concentration 7%). The plate was pre-incubated for 10 minutes at 25° C. and the reaction initiated by addition of 15 μL [γ-33P]ATP (final concentration 10 μM).
The reaction was stopped after 24 hours by the addition of 30 μL 0.1M phosphoric acid containing 2 mM ATP. A multiscreen phosphocellulose filter 96-well plate (Millipore, Cat no. MAPHN0B50) was pretreated with 100 μL 0.2M phosphoric acid prior to the addition of 45 μL of the stopped assay mixture. The plate was washed with […] 0.2M phosphoric acid. After drying, 100 μL Optiphase ‘SuperMix’ liquid scintillation cocktail (Perkin Elmer) was added to the well prior to scintillation counting (1450 Microbeta Liquid Scintillation Counter, Wallac).
After removing mean background values for all of the data points, Ki(app) data were calculated from non-linear regression analysis of the initial rate data using the Prism software package (GraphPad Prism version 3.0cx for Macintosh, GraphPad Software, San Diego Calif., USA).

T1 sequence (Q13535 whole entry): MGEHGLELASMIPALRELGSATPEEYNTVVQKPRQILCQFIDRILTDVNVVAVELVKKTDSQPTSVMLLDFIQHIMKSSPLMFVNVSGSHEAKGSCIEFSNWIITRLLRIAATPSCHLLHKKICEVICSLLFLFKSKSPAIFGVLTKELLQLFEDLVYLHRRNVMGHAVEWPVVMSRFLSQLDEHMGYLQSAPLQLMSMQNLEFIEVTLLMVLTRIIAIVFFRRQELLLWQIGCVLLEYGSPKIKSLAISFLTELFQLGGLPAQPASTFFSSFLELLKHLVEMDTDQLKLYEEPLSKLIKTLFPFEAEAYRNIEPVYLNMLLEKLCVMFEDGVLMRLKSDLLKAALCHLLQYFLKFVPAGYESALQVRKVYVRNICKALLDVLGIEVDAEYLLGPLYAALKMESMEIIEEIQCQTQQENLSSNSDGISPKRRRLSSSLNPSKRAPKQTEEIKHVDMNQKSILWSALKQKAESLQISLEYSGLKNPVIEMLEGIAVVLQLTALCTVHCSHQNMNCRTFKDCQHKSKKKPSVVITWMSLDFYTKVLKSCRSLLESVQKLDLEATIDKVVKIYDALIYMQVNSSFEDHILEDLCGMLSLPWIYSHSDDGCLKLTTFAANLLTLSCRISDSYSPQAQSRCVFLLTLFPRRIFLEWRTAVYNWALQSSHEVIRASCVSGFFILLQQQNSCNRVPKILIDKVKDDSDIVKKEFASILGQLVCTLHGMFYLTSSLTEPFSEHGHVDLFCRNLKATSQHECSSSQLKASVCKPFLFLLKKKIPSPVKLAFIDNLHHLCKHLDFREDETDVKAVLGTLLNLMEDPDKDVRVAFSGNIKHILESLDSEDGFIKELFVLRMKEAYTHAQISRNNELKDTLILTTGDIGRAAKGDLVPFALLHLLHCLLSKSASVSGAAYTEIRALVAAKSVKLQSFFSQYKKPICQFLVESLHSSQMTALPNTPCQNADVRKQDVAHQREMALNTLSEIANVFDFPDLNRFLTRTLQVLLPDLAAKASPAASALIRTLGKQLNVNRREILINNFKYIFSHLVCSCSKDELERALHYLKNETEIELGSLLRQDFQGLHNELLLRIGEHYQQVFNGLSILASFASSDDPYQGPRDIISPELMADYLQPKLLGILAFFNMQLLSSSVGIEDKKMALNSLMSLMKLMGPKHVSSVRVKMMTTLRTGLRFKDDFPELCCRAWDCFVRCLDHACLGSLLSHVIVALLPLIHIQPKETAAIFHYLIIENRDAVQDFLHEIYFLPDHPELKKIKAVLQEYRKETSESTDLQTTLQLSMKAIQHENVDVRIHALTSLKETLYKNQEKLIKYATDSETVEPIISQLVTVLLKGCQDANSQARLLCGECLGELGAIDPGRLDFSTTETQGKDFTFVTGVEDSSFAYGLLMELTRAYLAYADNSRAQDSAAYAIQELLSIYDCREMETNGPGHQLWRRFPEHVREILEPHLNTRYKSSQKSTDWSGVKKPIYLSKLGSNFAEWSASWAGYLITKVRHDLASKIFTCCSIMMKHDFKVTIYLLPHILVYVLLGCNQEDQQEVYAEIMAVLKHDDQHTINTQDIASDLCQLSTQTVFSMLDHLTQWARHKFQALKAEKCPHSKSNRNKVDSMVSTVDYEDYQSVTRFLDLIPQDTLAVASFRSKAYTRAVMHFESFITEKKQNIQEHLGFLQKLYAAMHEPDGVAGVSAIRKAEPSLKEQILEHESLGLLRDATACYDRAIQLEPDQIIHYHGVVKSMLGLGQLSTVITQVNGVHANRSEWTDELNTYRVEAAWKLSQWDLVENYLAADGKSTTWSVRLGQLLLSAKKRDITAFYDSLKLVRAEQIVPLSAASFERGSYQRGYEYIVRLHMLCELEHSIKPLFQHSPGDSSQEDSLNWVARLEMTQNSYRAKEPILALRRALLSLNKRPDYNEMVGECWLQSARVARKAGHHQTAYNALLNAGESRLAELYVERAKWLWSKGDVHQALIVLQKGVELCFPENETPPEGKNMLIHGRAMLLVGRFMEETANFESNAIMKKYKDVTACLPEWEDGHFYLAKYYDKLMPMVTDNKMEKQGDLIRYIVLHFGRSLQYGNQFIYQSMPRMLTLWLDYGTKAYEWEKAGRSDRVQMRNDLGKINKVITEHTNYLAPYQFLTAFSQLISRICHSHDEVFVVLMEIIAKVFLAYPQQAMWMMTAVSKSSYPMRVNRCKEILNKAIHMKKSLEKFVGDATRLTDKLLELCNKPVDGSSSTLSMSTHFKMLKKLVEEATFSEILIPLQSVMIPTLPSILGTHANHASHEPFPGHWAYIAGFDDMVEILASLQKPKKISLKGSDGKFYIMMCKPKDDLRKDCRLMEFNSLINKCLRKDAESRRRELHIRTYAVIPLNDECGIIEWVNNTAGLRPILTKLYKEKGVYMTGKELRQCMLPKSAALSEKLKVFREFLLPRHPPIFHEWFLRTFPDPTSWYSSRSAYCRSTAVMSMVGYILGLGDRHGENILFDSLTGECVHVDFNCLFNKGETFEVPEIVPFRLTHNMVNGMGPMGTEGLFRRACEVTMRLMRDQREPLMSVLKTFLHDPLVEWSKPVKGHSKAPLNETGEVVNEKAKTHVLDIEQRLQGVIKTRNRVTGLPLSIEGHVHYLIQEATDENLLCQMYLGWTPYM

| SMILES | Ki [nM] |
| --- | --- |
| Nc1ncc(Nc2cccnc2)nc1C(=O)Nc1ccccc1 [II-5, 3-Amino-N-phenyl-6-(3-pyridylamino)pyrazine-2-carboxamide] | ≤ 500 |
| C/C=C/c1cnc(N)c(-c2nc3ccc(C)cc3[nH]2)n1 [II-78, 3-(6-Methyl-1H-benzimidazol-2-yl)-5-[(E)-prop-1-enyl]pyrazin-2-amine] | 500 to 1000 |
| COC/C=C/c1cnc(N)c(-c2nc3ccc(C)cc3[nH]2)n1 [II-80, 5-[(E)-3-Methoxyprop-1-enyl]-3-(6-methyl-1H-benzimidazol-2-yl)pyrazin-2-amine] | 1000 to 8000 |
| COc1ccccc1NC(=O)c1nc(Nc2ccccc2)cnc1N [II-3, 3-Amino-6-anilino-N-(2-methoxyphenyl)pyrazine-2-carboxamide] | ≤ 500 |
| COCC#Cc1cnc(N)c(-c2nc3ccc(C)cc3[nH]2)n1 [II-83, 5-(3-Methoxyprop-1-ynyl)-3-(6-methyl-1H-benzimidazol-2-yl)pyrazin-2-amine] | 500 to 1000 |
| Cc1ccc2nc(-c3nc(C#CCN(C)C)cnc3N)[nH]c2c1 [II-84, 5-[3-(Dimethylamino)prop-1-ynyl]-3-(6-methyl-1H-benzimidazol-2-yl)pyrazin-2-amine] | 1000 to 8000 |
| Cc1ccc2nc(-c3nc(Oc4ccccc4C#N)cnc3N)[nH]c2c1 [II-20, 2-[5-Amino-6-(6-methyl-1H-benzimidazol-2-yl)pyrazin-2-yl]oxybenzonitrile] | 500 to 1000 |
| CC(C)Oc1cnc(N)c(-c2nc3ccccc3[nH]2)n1 [II-13, 3-(1H-Benzimidazol-2-yl)-5-isopropoxy-pyrazin-2-amine] | 1000 to 8000 |
| Nc1ncc(O[C@@H]2CC[C@@H](O)C2)nc1-c1nc2ccccc2[nH]1 (relative stereo) [II-36, trans-3-((5-Amino-6-(1H-benzo[d]imidazol-2-yl)pyrazin-2-yl)oxy)cyclopentanol] | 500 to 1000 |
| Nc1ncc(C#CCCO)nc1-c1nnc(-c2ccccc2)o1 [II-89, 4-[5-amino-6-(5-phenyl-1,3,4-oxadiazol-2-yl)pyrazin-2-yl]but-3-yn-1-ol] | 1000 to 8000 |
| Cc1ccc2nc(-c3nc(C(=O)NCC(=O)C(C)(C)C)cnc3N)[nH]c2c1 [II-62, 5-Amino-N-(3,3-dimethyl-2-oxo-butyl)-6-(6-methyl-1H-benzimidazol-2-yl)pyrazine-2-carboxamide] | 1000 to 8000 |
| Nc1ncc(Oc2ccccc2)nc1-c1nc2ccccc2[nH]1 [II-7, 3-(1H-Benzimidazol-2-yl)-5-phenoxy-pyrazin-2-amine] | 500 to 1000 |
| CC(=O)NCCOc1cnc(N)c(-c2nc3ccc(C)cc3[nH]2)n1 [II-34, N-[2-[5-Amino-6-(6-methyl-1H-benzimidazol-2-yl)pyrazin-2-yl]oxyethyl]acetamide] | 1000 to 8000 |
| Cc1ccc2nc(-c3nc(C#CCNS(C)(=O)=O)cnc3N)[nH]c2c1 [II-87, N-[3-[5-Amino-6-(6-methyl-1H-benzimidazol-2-yl)pyrazin-2-yl]prop-2-ynyl]methanesulfonamide] | 500 to 1000 |
| Cc1ccc2nc(-c3nc(C(=O)NCC4CCCC4)cnc3N)[nH]c2c1 [II-49, 5-Amino-N-(cyclopentylmethyl)-6-(6-methyl-1H-benzimidazol-2-yl)pyrazine-2-carboxamide] | ≤ 500 |
| N#Cc1cccc(Oc2cnc(N)c(-c3nc4ccccc4[nH]3)n2)c1 [II-10, 3-[5-Amino-6-(1H-benzimidazol-2-yl)pyrazin-2-yl]oxybenzonitrile] | ≤ 500 |

| SMILES | Ki [nM] |
| --- | --- |
| CC(=O)Nc1cnc(N)c(-c2nc3ccccc3[nH]2)n1 [II-91, N-[5-Amino-6-(1H-benzimidazol-2-yl)pyrazin-2-yl]acetamide] | ≤ 500 |
| Nc1ncc(Nc2cccc(F)c2)nc1C(=O)Nc1ccccc1 [II-4, 3-Amino-6-(3-fluoroanilino)-N-phenyl-pyrazine-2-carboxamide] | ≤ 500 |
| Cc1ccc2nc(-c3nc(C(=O)NCCC#N)cnc3N)[nH]c2c1 [II-77, 5-Amino-N-(2-cyanoethyl)-6-(6-methyl-1H-benzimidazol-2-yl)pyrazine-2-carboxamide] | ≤ 500 |
| Nc1ncc(OCCO)nc1-c1nc2ccccc2[nH]1 [II-14, 2-[5-Amino-6-(1H-benzimidazol-2-yl)pyrazin-2-yl]oxyethanol] | 1000 to 8000 |
| Cc1ccc2nc(-c3nc(C#CCNC(N)=O)cnc3N)[nH]c2c1 [II-86, 3-[5-Amino-6-(6-methyl-1H-benzimidazol-2-yl)pyrazin-2-yl]prop-2-ynylurea] | 1000 to 8000 |
| Cc1ccc2nc(-c3nc(C(=O)N4CCC4)cnc3N)[nH]c2c1 [II-60, [5-Amino-6-(6-methyl-1H-benzimidazol-2-yl)pyrazin-2-yl]-(azetidin-1-yl)methanone] | ≤ 500 |
| Cc1ccc2nc(-c3nc(C#CCO)cnc3N)[nH]c2c1 [II-82, 3-[5-Amino-6-(6-methyl-1H-benzimidazol-2-yl)pyrazin-2-yl]prop-2-yn-1-ol] | 500 to 1000 |
| Cc1ccc2nc(-c3nc(C(=O)N(C)CC#N)cnc3N)[nH]c2c1 [II-76, 5-Amino-N-(cyanomethyl)-N-methyl-6-(6-methyl-1H-benzimidazol-2-yl)pyrazine-2-carboxamide] | 1000 to 8000 |
| Cc1ccc2nc(-c3nc(OC4CCOC4)cnc3N)[nH]c2c1 (centres unmarked) [II-32, 3-(6-Methyl-1H-benzimidazol-2-yl)-5-tetrahydrofuran-3-yloxy-pyrazin-2-amine] | 500 to 1000 |
| COc1ccc(CNC(=O)c2cnc(N)c(-c3nc4ccc(C)cc4[nH]3)n2)cc1 [II-65, 5-Amino-N-[(4-methoxyphenyl)methyl]-6-(6-methyl-1H-benzimidazol-2-yl)pyrazine-2-carboxamide] | ≤ 500 |
| COc1cccc(Oc2cnc(N)c(-c3nc4ccccc4[nH]3)n2)c1 [II-15, 3-(1H-Benzimidazol-2-yl)-5-(3-methoxyphenoxy)pyrazin-2-amine] | 500 to 1000 |
| Cc1ccc2nc(-c3nc(C(=O)N(C)Cc4ccccc4)cnc3N)[nH]c2c1 [II-58, 5-Amino-N-benzyl-N-methyl-6-(6-methyl-1H-benzimidazol-2-yl)pyrazine-2-carboxamide] | 500 to 1000 |
| COc1ccccc1NC(=O)c1nc(Oc2ccccc2)cnc1N [II-16, 3-Amino-N-(2-methoxyphenyl)-6-phenoxy-pyrazine-2-carboxamide] | ≤ 500 |
| Cc1ccc2nc(-c3nc(C(=O)NC4CCC4)cnc3N)[nH]c2c1 [II-74, 5-Amino-N-cyclobutyl-6-(6-methyl-1H-benzimidazol-2-yl)pyrazine-2-carboxamide] | 1000 to 8000 |
| C=CCNC(=O)c1cnc(N)c(-c2nc3ccc(C)cc3[nH]2)n1 [II-66, N-Allyl-5-amino-6-(6-methyl-1H-benzimidazol-2-yl)pyrazine-2-carboxamide] | 1000 to 8000 |
| CCN(CC)C(=O)c1cnc(N)c(-c2nc3ccc(C)cc3[nH]2)n1 [II-46, 5-Amino-N,N-diethyl-6-(6-methyl-1H-benzimidazol-2-yl)pyrazine-2-carboxamide] | 1000 to 8000 |

same assay, conditions: at 15 uM compound; read-out: percent inhibition against ATR

| SMILES | inhibition at 15 µM [%] |
| --- | --- |
| Cc1cccc(Oc2cnc(N)c(-c3nc4ccccc4[nH]3)n2)c1 [II-11, 3-(1H-Benzimidazol-2-yl)-5-(3-methylphenoxy)pyrazin-2-amine] | 15 to 24 |
| Cc1ccc2nc(-c3nc(Oc4cccc(C#N)c4)cnc3N)[nH]c2c1 [II-31, 3-[5-Amino-6-(6-methyl-1H-benzimidazol-2-yl)pyrazin-2-yl]oxybenzonitrile] | 15 to 24 |
| COC(=O)c1ccc(Oc2cnc(N)c(-c3nc4ccc(C)cc4[nH]3)n2)cc1 [II-25, Methyl 4-[5-amino-6-(6-methyl-1H-benzimidazol-2-yl)pyrazin-2-yl]oxybenzoate] | 10 |
| Cc1ccc2nc(-c3nc(C(=O)NC4CCCC4)cnc3N)[nH]c2c1 [II-72, 5-Amino-N-cyclopentyl-6-(6-methyl-1H-benzimidazol-2-yl)pyrazine-2-carboxamide] | 15 to 24 |
| Cc1ccc2nc(-c3nc(C(=O)NCC4CCCCC4)cnc3N)[nH]c2c1 [II-63, 5-Amino-N-(cyclohexylmethyl)-6-(6-methyl-1H-benzimidazol-2-yl)pyrazine-2-carboxamide] | 25 to 45 |
| Cc1ccc2nc(-c3nc(OCCN4CCCCC4)cnc3N)[nH]c2c1 [II-27, 3-(6-Methyl-1H-benzimidazol-2-yl)-5-[2-(1-piperidyl)ethoxy]pyrazin-2-amine] | 25 to 45 |

same assay, conditions: at 30 uM compound; read-out: percent inhibition against ATR

| SMILES | inhibition at 30 µM [%] |
| --- | --- |
| Nc1ncc(Sc2cccc(F)c2)nc1-c1nc2ccccc2[nH]1 [II-40, 3-(1H-Benzimidazol-2-yl)-5-(3-fluorophenyl)sulfanyl-pyrazin-2-amine] | 40 to 50 |
| Cc1ccc2nc(-c3nc(Oc4ccccc4Cl)cnc3N)[nH]c2c1 [II-21, 5-(2-Chlorophenoxy)-3-(6-methyl-1H-benzimidazol-2-yl)pyrazin-2-amine] | 40 to 50 |

same assay, conditions: at 60 uM compound; read-out: percent inhibition of ATR

| SMILES | inhibition at 60 µM [%] |
| --- | --- |
| Cc1ccc2nc(-c3nc(Oc4cccc(Oc5ccccc5)c4)cnc3N)[nH]c2c1 [II-28, 3-(6-Methyl-1H-benzimidazol-2-yl)-5-(3-phenoxyphenoxy)pyrazin-2-amine] | 10 |
